IC50 and inhibition data for 23 molecules are collected here from patent US6753337B2, “Alkynyl containing hydroxamic acid compounds as matrix metalloproteinase/tace inhibitors” (Wyeth Holdings Corporation, priority 1999, dated 2004).

The structures appear in SMILES notation. Counter-ions that a name gives are not always drawn.

Assay [1] deals with TNF-α converting enzyme (TACE) (Homo sapiens, UniProt P78536). The experiment in a line: Test procedure for measuring TACE inhibition (fluorescent peptidyl substrate). The class given is biochemical. In outline: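 TACE (1 μg/mL final) preincubated 10 min at room temperature with 1 μM compound in 10 mM Tris pH 7.4, 10% glycerol, DMSO <1%. Treated rates tested against control by Dunnett's test (p<0.05).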
Chain of TNF-α converting enzyme (TACE) (P78536 215-824): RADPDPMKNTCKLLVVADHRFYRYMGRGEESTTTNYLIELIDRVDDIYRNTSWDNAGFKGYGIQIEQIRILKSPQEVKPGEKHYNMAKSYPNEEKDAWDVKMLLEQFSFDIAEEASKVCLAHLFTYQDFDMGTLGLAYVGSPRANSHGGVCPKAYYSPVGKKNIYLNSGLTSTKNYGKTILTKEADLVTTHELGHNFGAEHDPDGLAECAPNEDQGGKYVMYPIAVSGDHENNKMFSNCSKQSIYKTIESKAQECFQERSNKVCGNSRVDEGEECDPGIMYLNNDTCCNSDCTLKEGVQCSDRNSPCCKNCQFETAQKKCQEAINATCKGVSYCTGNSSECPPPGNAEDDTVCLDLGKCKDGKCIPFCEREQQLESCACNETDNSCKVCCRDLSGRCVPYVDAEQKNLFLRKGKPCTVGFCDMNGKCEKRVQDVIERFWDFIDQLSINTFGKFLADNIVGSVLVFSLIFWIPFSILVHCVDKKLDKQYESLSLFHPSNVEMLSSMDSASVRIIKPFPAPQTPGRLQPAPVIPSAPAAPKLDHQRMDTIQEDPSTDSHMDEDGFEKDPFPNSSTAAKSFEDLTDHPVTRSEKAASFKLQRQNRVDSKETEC

The next assay relates to THP-1 cells. The experiment in a line: Human monocytic THP-1 cell differentiation assay for soluble proteins (THP-1 soluble protein assay). The class given is cell-based. To be noted: LPS-stimulated THP-1 cells, soluble protein not given. The source says:
Mitogenic stimulation of THP-1 cells cause differentiation into macrophage like cells with concomitant secretion of tumor necrosis factor (TNF-α) and TNF receptor (TNF-R p75/80 and TNF-R p55160) and Interleukin-8 (IL-8), among other proteins. In addition, non-stimulated THP-1 cells shed both the p75/80 and the p55/60 receptors over time. The release of membrane bound TNF-α and possibly TNF-R p75/80 and TNF-R p55/60, but not IL-8, is mediated by an enzyme called TNF-α converting enzyme or TACE.
THP-1 cells (from ATCC) are a human monocytic cell line which were obtained from the peripheral blood of a person with acute monocytic leukemia. They can be grown in culture and differentiated into macrophage like cells by stimulation with mitogens.
Each vial of cells are cultured for about two weeks prior to being used for an assay and then are used for only 4 to 6 weeks to screen compounds.
Cell exposure to DMSO was limited to 0.1% final concentration. […] Compounds can be evaluated for their effect on basal (non-stimulated) shedding of the receptors by replacing the LPS with […] of THP-1 media.
Plates are placed into an incubator set at 5% CO2 and at 37° C. After 4 hours of incubation, […] of tissue culture supernatant (TCS) is removed for use in an TNF-α ELISA. Following 24 hours of incubation, […] of TCS is removed and used for analysis in TNF-R p75/80, TNF-R p55160 and IL-8 ELISAs.
In addition, at the 24 hours timepoint, and the cells for each treatment group are collected by resuspension in 500 μl/well of THP-1 media and transferred into a FACS tube. […] The samples are run on a Becton Dickinson FaxCaliber FLOW cytometry machine and the amount of dye taken up by each cell is measured in the high red wavelength (FL3). Only cells with compromised membranes (dead or dying) can take up PI. The percent of live cells is calculated by the number of cells not stained with PI, divided by the total number of cells in the sample. The viability values calculated for the drug treated groups were compared to the viability value calculated for the vehicle treated mitogen stimulated group (“vehicle positive control”) to determine the “percent change from control”. This “percent change from control” value is an indicator of drug toxicity.
The quantity of soluble TNF-α, TNF-R p75/80 and TNF-R p55160 and IL-8 in the TCS of the THP-1 cell cultures are obtained with commercially available ELISAs from R&D Systems, by extrapolation from a standard curve generated with kit standards. The number of cells that either take up or exclude PI are measured by the FLOW cytometry machine and visualized by histograms using commercially available Cytologic software for each treatment group including all controls.
Biological variability in the magnitude of the response of THP-1 cell cultures requires that experiments be compared on the basis of percent change from “vehicle positive control” for each drug concentration. Percent change in each soluble protein evaluated from the “vehicle positive control” was calculated for each compound concentration with the following formula: [formula]
For the soluble protein (TNF-α, p75/80, p55/60, IL-8) studies under stimulated conditions, the mean pg/ml of duplicate wells were determined and the results expressed as percent change from “vehicle positive control”. For the soluble protein (p75/80 and p55/60 receptors) studies under non-stimulated conditions, the mean pg/ml of duplicate wells were determined and the results expressed as percent change from “vehicle positive control” utilizing the following formula: [formula]
IC50 values for each compound are calculated by non-linear regression analysis using customized software utilizing the JUMP statistical package.
For the cell viability studies, the viabilities (PI exclusion) of pooled duplicate wells were determined and the results expressed as % change from “vehicle positive control”.

In turn, `CC#CCOc1ccc(S(=O)(=O)C2(C(=O)NO)CCN(C(=O)c3ccc(OC)cc3)CC2)cc1` [Example 66, 1-(4-Methoxybenzoyl)-4-(4-but-2-ynyloxybenzenesulfonyl)piperidine-4-carboxylic acid hydroxamide] came in with an IC50 in assay [1] of 106 nM. In addition, the inhibition at 3 µM in the assay with THP-1 cells worked out at 73%.

For `CC#CCOc1ccc(S(=O)(=O)C2(C(=O)NO)CCN(C(=O)N3CCCC3)CC2)cc1` [Example 67, 4-(4-But-2-ynyloxybenzenesulfonyl)-N-hydroxy-1-(pyrrolidine-1-carbonyl)-4-piperidinecarboxamide], the midpoint of inhibition in assay [1], the IC50, lay at 72 nM. The inhibition at 3 µM in the assay with THP-1 cells came out at 18%.

As for `CC#CCOc1ccc(S(=O)(=O)C2(C(=O)NO)CCN(Cc3ccc(OC)cc3)CC2)cc1` [Example 2, 4-(4-But-2-ynyloxy-benzenesulfonyl)-1-(4-methoxy-benzyl)-piperdine-4-carboxylic acid hydroxyamide], in assay [1], the IC50 is 82 nM. Also, the inhibition at 3 µM in the assay with THP-1 cells amounted to 68%.

In turn, `CC#CCOc1ccc(S(=O)(=O)CC2(C(=O)NO)CCN(C(=O)OC(C)(C)C)CC2)cc1` [Example 34, tert-Butyl-4-({[4-(but-2-ynyloxy)phenyl]sulfonyl}methyl)-4-[(hydroxyamino)-carbonyl]piperidine-1-carboxylate] had an IC50 in assay [1] of 33 nM. The inhibition at 3 µM with THP-1 cells was 68%.

The molecule `CC#CCOc1ccc(S(=O)(=O)C2(C(=O)NO)CCN(C(=O)OC(C)(C)C)CC2)cc1` [Example 75, Tert-butyl 4-{[4-(2-butynyloxy)phenyl]sulfonyl}-4-[(hydroxyamino)carbonyl-]-1-piperidinecarboxalate] registered an IC50 in assay [1] of 134 nM. In addition, in the assay with THP-1 cells, the inhibition at 3 µM was -4%.

In assay [1], `CC#CCOc1ccc(S(=O)(=O)CC2(C(=O)NO)CCN(Cc3ccccc3)CC2)cc1` [Example 41] came in with a 50% inhibitory concentration (IC50) of 37 nM. Also, the inhibition at 3 µM in the assay on THP-1 cells was determined as 60%.

`CC#CCOc1ccc(S(=O)(=O)C2(C(=O)NO)CCOCC2)cc1` [Example 20, 4-{[4-(2-butynyloxy)phenyl]sulfonyl}-N-hydroxytetrahydro-2H-pyran-4-carboxamide] yielded a half-inhibitory concentration (IC50) in assay [1] of 30.1 nM. The inhibition at 3 µM with THP-1 cells came out at 47%.

The molecule `CC#CCOc1ccc(S(=O)(=O)CC2(C(=O)NO)CCN(CC#CCO)CC2)cc1` [Example 45] yielded an IC50 in assay [1] of 25 nM. The inhibition at 3 µM with THP-1 cells came out at 48%.

Take `CC#CCOc1ccc(S(=O)(=O)C2(C(=O)NO)CCN(Cc3cccnc3)CC2)cc1` [Example 23, 4-{[4-(2-butynyloxy)phenyl]sulfonyl}-N-hydroxy-1-(3-pyridinylmethyl)-4-piperidine carboxamide]: the midpoint of inhibition in assay [1], the IC50, lay at 86.2 nM. Besides, the inhibition at 3 µM in the assay with THP-1 cells was 62%.

On to `CC#CCOc1ccc(S(=O)(=O)C2(C(=O)NO)CCN(C(C)C)CC2)cc1` [Example 22, 4-{[4-(2-butynyloxy)phenyl]sulfonyl}-N-hydroxy-1-isopropyl-4-piperidine carboxamide], for which, in assay [1], the inhibition at 1 µM stood at 48.4%. Also, the inhibition at 3 µM with THP-1 cells came to 5%.

Molecule `CC#CCOc1ccc(S(=O)(=O)C2(C(=O)NO)CCN(Cc3ccc(C(=O)O)cc3)CC2)cc1` [Example 78, 4-({4-{[4-(2-butynyloxy)phenyl]sulfonyl}-4-[(hydroxyamino)-carbonyl]-1-piperidinyl}methyl)benzoic acid hydrochloride] gave an IC50 in assay [1] of 64.5 nM. Also, the inhibition at 3 µM in the assay on THP-1 cells worked out at 64%.

In assay [1], `CC#CCOc1ccc(S(=O)(=O)C2(C(=O)NO)CCN(C(=O)c3cccs3)CC2)cc1` [Example 71, 4-(4-but-2-ynyloxybenzenesulfonyl)-N-hydroxy-1-(2-thienylcarbonyl)-4-piperidinecarboxamide] came in with an IC50 of 113 nM. In addition, in the assay on THP-1 cells, the inhibition at 3 µM stood at 14%.

Take `CC#CCOc1cccc(S(=O)(=O)C2(C(=O)NO)CCN(Cc3ccccc3)CC2)c1` [Example 21, 1-benzyl-4-{[3-(2-butynyloxy)phenyl]sulfonyl}-N-hydroxy-4-piperdine carboxamide]: the IC50 in assay [1] is 509 nM. Also, the inhibition at 3 µM with THP-1 cells turned out to be 6%.

Consider `CC#CCOc1ccc([S+]([O-])C2(C(=O)NO)CCN(Cc3ccc(Br)cc3)CC2)cc1` (stereo not shown) [Example 82, 1-(4-Bromo-benzyl)-4-(4-But-2-ynyloxy-benzenesulfinyl)-piperidine-4-carboxylic acid hydroxamide hydrochloride], for which the IC50 in assay [1] came out at 135 nM. Also, in the assay with THP-1 cells, the inhibition at 3 µM amounted to 16%.

Take `C#CCOc1ccc(S(=O)(=O)C2(C(=O)NO)CCN(Cc3ccc(Cl)cc3)CC2)cc1` [Example 29, 1-(4-Chlorobenzyl)-4-(4-prop-2-ynyloxy-benzenesulfonyl)-piperidine-4-carboxylic acid hydroxyamide]: in assay [1], it took 127 nM to reach half-maximal inhibition (IC50). For the same molecule, the inhibition at 3 µM in the assay on THP-1 cells came out at 13%.

In the case of `O=C(NO)C1(S(=O)(=O)c2ccc(OCC#CCN3CCCCC3)cc2)CCN(Cc2ccc(Br)cc2)CC1` [Example 12, 1-(4-bromo-benzyl)-4-[4-(4-piperidin-1-yl-but-2-ynyloxy)-benzenesulfonyl]-piperidine-4-carboxylic acid hydroxyamide], the inhibition at 1 µM in assay [1] was 41.8%. Besides, the inhibition at 3 µM in the assay with THP-1 cells amounted to 58%.

`CC#CCOc1ccc(SCC2(C(=O)NO)CCN(C(=O)OC(C)(C)C)CC2)cc1` [Example 30, tert-butyl-4-({[4-(2-butynyloxy)phenyl]sulfanyl}methyl)-4-[(hydroxyamino)-carbonyl]-1-piperidinecarboxylate] showed a 50% inhibitory concentration (IC50) in assay [1] of 102 nM. Besides, the inhibition at 3 µM in the assay on THP-1 cells worked out at 0%.

Take `CC#CCOc1ccc([S+]([O-])CC2(C(=O)NO)CCN(C(=O)OC(C)(C)C)CC2)cc1` (stereo not shown) [Example 32, tert-Butyl-4-({[4-(2-butynyloxy)phenyl]sulfinyl}methyl)-4-[(hydroxyamino)-carbonyl]-1-piperidinecarboxylate]: half-maximal inhibition in assay [1] (IC50) required 100 nM. The inhibition at 3 µM in the assay on THP-1 cells is 0%.

Molecule `CC#CCOc1ccc(S(=O)(=O)C2(C(=O)NO)CCN(Cc3ccc(C(N)=O)cc3)CC2)cc1` [Example 79, 1-[4-(Aminocarbonyl)benzyl]-4-{[4-(2-butynyloxy)phenyl]sulfonyl}-N-hydroxy-4-piperidinecarboxamide hydrochloride] came in with an IC50 in assay [1] of 70 nM. Besides, in the assay with THP-1 cells, the inhibition at 3 µM turned out to be 83%.

Consider `CC#CCOc1ccc(S(=O)(=O)CC2(C(=O)NO)CCN(C(=O)OCc3ccccc3)CC2)cc1` [Example 40, Benzyl 4-({[4-(2-butynyloxy)phenyl]sulfonyl}methyl)-4-[(hydroxyamino)-carbonyl]-1-piperidinecarboxylate], for which, in assay [1], half-maximal inhibition (IC50) required 63 nM. In the assay with THP-1 cells, the inhibition at 3 µM came out at 41%.

In assay [1], `CC#CCOc1ccc(S(=O)(=O)CC2(C(=O)NO)CCN(C(C)=O)CC2)cc1` [Example 36, 1-Acetyl-4-[[[4-(2-butynyloxy)phenyl]sulfonyl]methyl]-N-hydroxy-4-piperidinecarboxamide] yielded a half-maximal inhibitory concentration (IC50) of 4.8 nM. In addition, in the assay with THP-1 cells, the inhibition at 3 µM came to 58%.

`CC#CCOc1ccc(S(=O)(=O)C2(C(=O)NO)CCN(Cc3ccc(F)cc3)CC2)cc1` [Example 7, 4-(4-But-2-ynyloxy-benzenesulfonyl)-1-(4-fluoro-benzyl)-piperidine-4-carboxylic acid hydroxyamide]: the IC50 in assay [1] was 123 nM. In the assay with THP-1 cells, the inhibition at 3 µM was found to be 21%.

On to `CC#CCOc1ccc(S(=O)(=O)C2(C(=O)NO)CCN(C(=O)c3cccnc3)CC2)cc1` [Example 70, 4-(4-But-2-ynyloxybenzenesulfonyl)-N-hydroxy-1-(3-pyridinylcarbonyl)-4-piperidinecarboxamide], for which, in assay [1], half-maximal inhibition (IC50) was put at 87 nM. Besides, the inhibition at 3 µM in the assay on THP-1 cells came out at 62%.
